In patent US20090227493A1, “COMBINED DRUG FOR TREATING DIABETES” (DAIICHI SANKYO COMPANY, LIMITED, priority 2005, published 2009):

Experiments:
[1] = system: diabetic obese rats (male ZDF rats); experiment: Test Example 2: effect of combined use of various GLP-1 receptor agonists and compound A, same manner as Test Example 1; settings: combined use with compound A
[2] = system: diabetic obese rats (male ZDF rats); experiment: Test Example 1: effect of combined use of GLP-1 (7-36) amide and compound A; assay type: in vivo, rat; settings: from start of treatment to 57 days; FIG. 1-C
Description: In this test, commercially available diabetic obese rats (male ZDF rats, 8 weeks old at the start of administration, purchased from Charles River Laboratories Japan, Inc.) were used. ZDF rats used in this test were acclimatized to the feeding time from 9:30 to 16:30 from one week before the start of treatment.
Rats were divided into four groups: the control group, compound A treatment group (group A), GLP-1 (7-36) amide treatment group (group B), and compound A plus GLP-1 (7-36) amide treatment group (group C).
The control group and group B were allowed free access to a powder feed (FR-2: Funabashi Farms Co., Ltd.) from 9:30 to 16:30. […] The dose of compound A was calculated as 16.1 μg/kg/day based on the food intake during this period. […]
Glycosylated hemoglobin (HbA1c) levels were measured at 42 days after the start of treatment, and blood sugar levels in full feeding were measured at 47 days. […]
Furthermore, insulin in the pancreas was extracted by the hydrochloric acid-ethanol method (Diabetelogia, Vol. 27, pp. 454-459 [1984]), and the insulin concentration in the extract was determined by using a rat insulin RIA kit manufactured by Linco Research, Inc. to obtain the pancreatic insulin content. […]
Blood was collected from the caudal vein of the rats, and blood sugar levels were measured with Glucoroder GXT (A & T Corporation). HbA1c levels were measured with DC2000 (Bayer Medical Ltd.).

| Compound | weight gain by compound A [1] | increases in body weight (weight gain) [2] | decrease in HbA1c levels [1] | pancreatic insulin content [1] |
| --- | --- | --- | --- | --- |
| CCCCCCCCCCCCCCCC(=O)N[C@@H](CCC(=O)NCCCC[C@H](NC(=O)[C@H](C)NC(=O)[C@H](C)NC(=O)[C@H](CCC(N)=O)NC(=O)CNC(=O)[C@H](CCC(=O)O)NC(=O)[C@H](CC(C)C)NC(=O)[C@H](Cc1ccc(O)cc1)NC(=O)[C@H](CO)NC(=O)[C@H](CO)NC(=O)[C@@H](NC(=O)[C@H](CC(=O)O)NC(=O)[C@H](CO)NC(=O)[C@@H](NC(=O)[C@H](Cc1ccccc1)NC(=O)[C@@H](NC(=O)CNC(=O)[C@H](CCC(=O)O)NC(=O)[C@H](C)NC(=O)[C@@H](N)Cc1cnc[nH]1)[C@@H](C)O)[C@@H](C)O)C(C)C)C(=O)N[C@@H](CCC(=O)O)C(=O)N[C@@H](Cc1ccccc1)C(=O)N[C@H](C(=O)N[C@@H](C)C(=O)N[C@@H](Cc1c[nH]c2ccccc12)C(=O)N[C@@H](CC(C)C)C(=O)N[C@H](C(=O)N[C@@H](CCCNC(=N)N)C(=O)NCC(=O)N[C@@H](CCCNC(=N)N)C(=O)NCC(=O)O)C(C)C)[C@@H](C)CC)C(=O)O [Arg^34 Lys^26(N^6-(γ-L-glutamyl(N^α-palmitoyl))) GLP-1 (7-37)] | suppressing |  |  |  |
| COc1ccc2nc(COc3ccc(CC4SC(=O)NC4=O)cc3)n(C)c2c1 (centres unmarked) [compound A, 5-[4-(6-Methoxy-1-methyl-1H-benzimidazol-2-ylmethoxy)benzyl]thiazolidine-2,4-dione] |  | weight gain |  |  |
| exendin 3 | suppressing |  | synergistic effect | marked increase |
